Data as given in US5219879A, “Heterocyclic steroid compounds” (Du Pont Merck Pharmaceutical Company, priority 1991, dated 1993).

Experiments:
[1] = test system: cholesterol biosynthesis pathway; experiment: Assay of 14C-Acetate Incorporation into the Biosynthesis of Cholesterol (HepG2 cells); format: cell-based; details: Homo sapiens, 22 hours with test compound, then 14C-acetate for additional 2 hours, read-out: IC50, inhibition of the incorporation of 14C-acetate into the cholesterol biosynthesis pathway
Experimental: The HepG2 cells (a human hepatoma cell line) used in this example were obtained from the American Type Culture Collection (ATCC, Rockville, Md.). They were maintained in Dulbecco's Modified Eagles Medium and Ham's F12 Medium (1:1) supplemented with 10% heat inactivated Fetal Bovine serum, […] Herpes, 1 mM sodium pyruvate, 1×Non-essential Amino Acids (Gibco) and 2 mM L-glutamine.
The cells were harvested by washing cultures with 10 ml Hank's Balanced Salt Solution (2×) and incubating with 0.125% Trypsin in Versene (0.02% EDTA) for approximately one minute. After the cells are visibly rounded and loosened from the flask, 9 ml of the above medium is added. The cells are transferred to a […] culture dish and syringed up and down through a 20 gauge needle to break up aggregated clumps of cells. Cell cultures are plated at 0.1×10^6 /ml and 0.075×10^6 /ml in two 24 well plates, respectively, aliquoting 1 ml cells/well. The cells are allowed to attach for 24 hours (48 hours for the lower density plate) before washing 2× with HBSS and refed with 1 ml of the above medium with 1% Cabosil delipidated serum instead of Fetal Bovine Serum. The cells are treated with the test compounds after 24 hours of exposure to the delipidated serum media.
Chemicals are routinely prepared as a 10 mM solution in 100% ethanol or dimethyl sulfoxide (DMSO). All test compounds are added at 50 μM, 25 μM, 10 μM, 1 μM at a final concentration of 0.45% solvent, 0.25% Bovine Serum Albumin (BSA) suspension per well. The solvent BSA is sonicated for 10 seconds to ensure maximum solubilization before addition to the cells. Control wells receive solvent/BSA at the same concentrations as the drug treated cultures. […]
The eluted sterols are dried under nitrogen gas and resuspended in 150 μL ethanol. […] The samples are counted on the dual label ^3 H:^14 C program on the Beckman scintillation counter Model LS 7800.
The incorporation of both radiolabeled precursors into sterols is compared between the treated and non-treated (control) cultures and expressed as "% control" for each precursor. […]

[2] = test system: 3-Hydroxy-3-Methylglutaryl Coenzyme A Reductase (HMGR); experiment: 3-Hydroxy-3-Methylglutaryl Coenzyme A Reductase (HMGR) Suppression Assay; format: cell-based, Chinese Hamster (CHO cells); details: CHO cells, 6 hr. at 37°; read-out: IC50 (amount of compound required to suppress HMGR activity by 50% relative to controls)
Experimental: The ability of the compounds of Formula I to suppress the activity of HMGR, the rate limiting enzyme of cholesterol biosynthesis, was tested as follows.
Chinese Hamster Ovary (CHO) cells were divided twice weekly and were maintained in McCoy's 5A medium supplemented with 1% carbosil delipidated Fetal Bovine System (FBS) (obtained from Gibco Laboratories, Chagrin Falls, Ohio). Cells were harvested during the logarithmic phase of growth and cell cultures were prepared by adding […] cells to each well in a 24 well cluster dish (obtained from Costar, Data Packaging Corp., Cambridge, Mass.) employing 1 ml of the above medium per each well. […] Control cells were treated in an identical fashion to those which received test compound, except they were incubated with the BSA and ethanol suspension only.
Specifically, the medium in each well was aspirated and the cells rinsed with a 50 mM solution of phosphate buffered saline (PBS). One ml of 30 mg/ml of digitonin in CSK buffer (prepared using 10 mM Pipes [piperazine-N,N'-bis (2-ethansulfonic) acid], 100 mM KCl, 2.5 mM MgCl2, 300 mM sucrose, 1 mM EGTA, pH 6.8) was added to each well and incubated for 10 min. at 22° to permeabilize the cells. The buffer was carefully aspirated and the wells were rinsed twice each time with 1 ml of PBS. HMGR activity was measured directly by adding 75 ml of PIB buffer (50 mM potassium phosphate, 1 mM Na2 EDTA, 10 mM dithiothreitol, pH 7.4) to each well and incubating the cells for 30 minutes at 37° as described above. […] The assay mixture was incubated for 30 min. at 37° and terminated by the addition of 70 ml of [^3 H]-mevalonicacid (35,000 DPM/assay), 0.15 mg/ml in 3N HCl.
The reaction was left to lactonize for an additional 30 min. at 37° or overnight at room temperature.
Reaction products were separated by thin layer chromatography on silica gel G (obtained from Analtech, Newark, Del.) developed in an unsaturated environment with acetone:benzene (3:2, v:v). The band corresponding to mevalonolactone was identified by exposure to iodine vapor and was scraped into counting vials. The extent of conversion of starting substrate, HMG-CoA, to mevalonic acid was determined by liquid scintillation counting in Biofluor (obtained from New England Nuclear, Boston, Mass.). Corrections for recovery and blank values were made for each sample. Protein determinations were made by Bio-Rad (Bio-Rad, Richmond, Calif.) dye binding assay according to the manufacturer's instruction using bovine serum albumin as standard. Cellular protein was solubilized from culture dishes by the addition of 20 μl of 16N KOH and assayed directly for protein amount. Suppression values are expressed as the amount of compound required to suppress HMGR activity by 50% relative to that of the controls.

Venturia inaequalis = experiment: Example A: apple scab on apple seedlings; format: in vivo; details: 200 ppm, sprayed the day before inoculation, 100 = 100% disease control
Experimental: (§1) The test compounds were dissolved in acetone in an amount equal to 6% of the final volume and then suspended at a concentration of 200 ppm in purified water containing 250 ppm of the surfactant TREM 014 (polyhydric alcohol esters). This suspension was sprayed to the point of run-off on apple seedlings. The following day plants were inoculated with a spore suspension of Venturia inaequalis, the casual agent of apple scab, and incubated in a saturated humidity chamber at 20° C. for 24 hours and then in a growth chamber at 22° C. for 11 days, when disease ratings were made. […] A dashed entry indicates the specified test was not performed.

peanut seedlings = experiment: Example B: plant disease control on peanut seedlings; format: in vivo; details: 200 ppm, 100 = 100% disease control
Experimental: The test compounds were dissolved in acetone in an amount equal to 6% of the final volume and then suspended at a concentration of 200 ppm in purified water containing 250 ppm of the surfactant TREM […] (polyhydric alcohol esters). This suspension was sprayed to the point of run-off on peanut seedlings. The following day plants were incubated in a saturated humidity chamber at 22° C. for 24 hours, then in a high humidity chamber at 27° C. for 7 days, and then in a growth chamber at 29° C. for 7 days, when disease ratings were made.
In this table, a rating of 100 indicated 100% disease control, and a rating of 0 indicates no disease control relative to untreated plants that were inoculated and incubated as described in each Example. A dashed entry indicates the specified test was not performed.

Botyrtis cinerea = experiment: Example C: bean grey mold on broad bean seedlings; format: in vivo; details: 200 ppm, 100 = 100% disease control
Experimental: as §1, with “[…]” for “014”, “broad bean” for “apple”, “Botyrtis cinerea,” for “Venturia inaequalis,”, “causal” for “casual”, “bean grey mold,” for “apple scab,”, “hours” for “hours and then in a growth chamber at 22° C. for 11 days,”

[3] = test system: Ersiphe graminis f. sp. tritici; experiment: Example D: wheat powdery mildew on wheat seedlings; format: in vivo; details: 200 ppm, 100 = 100% disease control
Experimental: The test compounds were dissolved in acetone in an amount equal to 6% of the final volume and then suspended at a concentration of 200 ppm in purified water containing 250 ppm of the surfactant TREM 014 (polyhydric alcohol esters). This suspension was sprayed to the point of run-off on wheat seedlings. […] A dashed entry indicates the specified test was not performed.

Pyricularia oryzae = format: in vivo; details: rice seedlings, 200 ppm; 100 = 100% disease control
Rhizoctonia solani = experiment: Example F: rice sheath blight on rice seedlings; format: in vivo; details: 220 ppm, 0 = no disease control, 100 = 100% disease control
Experimental: The test compounds were dissolved in acetone in an amount equal to 6% of the final volume and then suspended at a concentration of 220 ppm in purified water containing 250 ppm of the surfactant TREM 014 (polyhydric alcohol esters). This suspension was sprayed to the point of run-off on rice seedlings. The following day plants were inoculated with a mycelial suspension of Rhizoctonia solani, the causal agent of rice sheath blight, and incubated in a saturated humidity chamber at 27° C. for 48 hours and then in a growth chamber at 29° C. for 4 days, when disease ratings were made. […] A dashed entry indicates the specified test was not performed.

Puccinia recondita = experiment: Example G: wheat leaf rust on wheat seedlings; format: in vivo; details: 220 ppm, 100 = 100% disease control
Experimental: The test compounds were dissolved in acetone in an amount equal to 6% of the final volume and then suspended at a concentration of 220 ppm in purified water containing 250 ppm of the surfactant TREM 014 (polyhydric alcohol esters). This suspension was sprayed to the point of run-off on wheat seedlings. The following day plants were inoculated with a spore suspension of Puccinia recondita, the causal agent of wheat leaf rust, and incubated in a saturated humidity chamber at 20° C. for 48 hours and then in a growth chamber at 20° C. for 8 days, when disease ratings were made. […] A dashed entry indicates the specified test was not performed.

Botrytis cinerea [4] = experiment: Example J: grape grey mold on grape seedlings; format: in vivo; details: 200 ppm, 100 = 100% disease control
Experimental: as §1, with “grape” for “apple”, “Botrytis cinerea,” for “Venturia inaequalis,”, “causal” for “casual”, “grape grey mold,” for “apple scab,”, “96” for “24”, “hours” for “hours and then in a growth chamber at 22° C. for 11 days,”

Botrytis cinerea [5] = experiment: Example K: cucumber grey mold on cucumber seedlings; format: in vivo; details: 200 ppm, 100 = 100% disease control
Experimental: as §1, with “cucumber” for “apple”, “Botrytis cinerea,” for “Venturia inaequalis,”, “causal” for “casual”, “cucumber grey mold,” for “apple scab,”, “4 days” for “24 hours and then in a growth chamber at 22° C. for 11 days,”

[6] = Lowering Blood Cholesterol Levels in Hamsters; format: in vivo, Male Golden Syrian hamsters; details: 0.2% (w/w) in feed, 7 days; means ± SEM; N = 10; pair-fed control 133.0 ± 4.0 (N = 20)
Experimental: Male Golden Syrian hamsters (50-60 grams) were obtained from Charles River, Inc. (Wilmington, Mass.).
Animals were housed in individual suspension cages and were maintained on a light cycle consisting of 12 hours of light followed by 12 hours of dark. Animals were allowed free access to water and feed (Agway ground chow, RMH 3200, Agway, Syracuse, N.Y.) containing 1% (w/w) corn oil) for a minimum of 4 weeks.
Following this stabilization period a sample of blood was collected by orbital sinus bleeding under light ether anesthesia into heparinized capillary tubes. Plasma was separated by centrifugation (600×g for 10 minutes) and plasma cholesterols were determined by an autoanalyzer (Centrifichem 600, Baker Instruments, Allentown, Pa.). Based upon measured plasma cholesterol values, the animals were randomized into two groups such that the mean plasma cholesterol values were identical for both groups.
Animals in the two groups were then placed on one of two diets: (1) Diet A, consisting of ground chow plus 1% (w/w) corn oil, as described above; or (2) Diet B, consisting of Diet A plus 0.2% (w/w) of a test compound. Animals on Diet B, the treated animals, were allowed free access to feed and water, while animals on Diet A were pair-matched with Diet B animals and served as pair-fed controls. […] Total plasma cholesterol levels were determined as described above. […]

Compound: C=C[C@@]12OC[C@H]([C@H](C)/C=C/[C@H](C)C(C)C)[C@@]1(C)CCC1=C2CC[C@H]2C[C@@H](O)CC[C@]12C [Example 29 (Compound 80), (22E)-15-Oxa-14α-vinyl-ergosta-8,22-dien-3β-ol]
- IC50 [1]: > 50000 nM

Compound: CC[C@@]12OC[C@H]([C@H](C)CC[C@H](C)C(C)C)[C@@]1(C)CCC1=C2CC[C@H]2C[C@@H](O)CC[C@]12C [Example 30 (Compound 81), 14α-Ethyl-15-oxa-ergost-8-en-3β-ol]
- IC50 [1]: 600 nM

Compound: CC(C)CCC[C@@H](C)[C@H]1CN=C2C3=C(CC[C@@]21C)[C@@]1(C)CC[C@H](O)C(C)(C)[C@@H]1CC3 [Example 1817]
- IC50 [2]: 500 nM
- disease control rating, Example A (Venturia inaequalis): 90%
- disease control rating, Example B (peanut seedlings): 25%
- disease control rating, Example C (Botyrtis cinerea): 97%
- disease control rating, Example D [3]: 92%
- disease control rating, Example E (Pyricularia oryzae): 1%
- disease control rating, Example F (Rhizoctonia solani): 0%
- disease control rating, Example G (Puccinia recondita): 62%
- disease control rating, Example J (Botrytis cinerea [4]): 97%
- disease control rating, Example K (Botrytis cinerea [5]): 99%

Compound: CC(C)CCC[C@@H](C)[C@H]1CO[C@@]2(C)C3=C(CC[C@]12C)[C@@]1(C)CC[C@H](O)C(C)(C)[C@@H]1CC3 [Example 1, 15-Oxa-dihydrolanosterol]
- IC50 [2]: 180 nM
- Plasma Cholesterol, Treated [6]: 120. ± 2.0 mg/dl

Compound: C=C[C@@]12OC[C@H]([C@H](C)/C=C/[C@H](C)C(C)C)[C@@]1(C)CCC1=C2CC[C@H]2C(C)(C)[C@@H](O)CC[C@]12C [Example 28 (Compound 78), (22E)-4,4-Dimethyl-15-oxa-14α-vinylergosta-8,22-dien-3β-ol]
- IC50 [1]: 50 nM
